According to publication PMC9316313, “Biochemical Properties of Atranorin-Induced Behavioral and Systematic Changes of Laboratory Rats” (Life, 2022):

Target: T1, human serum albumin (HSA) (Homo sapiens, UniProt P02768)
T1 construct: gene ALB; Albumin from human serum (A1887, Sigma Aldrich)
Assay: intrinsic fluorescence quenching (Stern-Volmer, binding constant KB), synchronous and 3D fluorescence
Conditions: read-out: intrinsic fluorescence quenching (Stern-Volmer, binding constant KB), synchronou (converted)

T1 sequence (P02768 25-609): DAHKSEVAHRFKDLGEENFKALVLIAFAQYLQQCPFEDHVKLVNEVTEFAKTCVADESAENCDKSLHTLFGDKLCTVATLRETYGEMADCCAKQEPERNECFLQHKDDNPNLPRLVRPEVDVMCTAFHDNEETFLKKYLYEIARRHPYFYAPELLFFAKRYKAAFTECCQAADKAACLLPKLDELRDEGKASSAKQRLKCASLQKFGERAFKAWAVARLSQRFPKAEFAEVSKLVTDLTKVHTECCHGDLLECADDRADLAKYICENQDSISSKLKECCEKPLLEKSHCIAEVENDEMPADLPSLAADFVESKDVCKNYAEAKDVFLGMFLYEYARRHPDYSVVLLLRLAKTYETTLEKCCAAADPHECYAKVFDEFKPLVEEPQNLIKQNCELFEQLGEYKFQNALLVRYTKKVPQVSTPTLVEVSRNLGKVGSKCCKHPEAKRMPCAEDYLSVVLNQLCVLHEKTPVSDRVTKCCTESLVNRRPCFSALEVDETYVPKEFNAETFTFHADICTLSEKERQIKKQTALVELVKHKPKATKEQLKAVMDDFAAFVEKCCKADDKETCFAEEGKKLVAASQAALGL

Kd: 235 nM
SMILES: COC(=O)c1c(C)cc(OC(=O)c2c(C)cc(O)c(C=O)c2O)c(C)c1O [ATR, Atranorin]
